Publication PMC7413254 (Nature Communications, 2020)
Where two headings read alike, the source gives them in different places.

Legend:
[1] = molecular target: T1, PfCRT^7G8 in C6^7G8 parasites (Plasmodium falciparum, UniProt Q8IBZ9, A220S/C72S/I351M/I356L/K76T/N326D); assay: P. falciparum H+-efflux assay (rate of DV alkalinisation after concanamycin A); type: cell-based; conditions: C67G8; for Effect on rate of DV alkalinisation / H+ leak (in words): test solute 10 μM
T1 construct: PfCRT also functions as a peptide transporter within its native environment of the DV membrane; expressed in transfected cells; host or cells: P. falciparum pfcrt transfectant line C6^7G8 (saponin-isolated trophozoites)
T1 sequence (Q8IBZ9 1-424 C72S/K76T/A220S/N326D/I351M/I356L): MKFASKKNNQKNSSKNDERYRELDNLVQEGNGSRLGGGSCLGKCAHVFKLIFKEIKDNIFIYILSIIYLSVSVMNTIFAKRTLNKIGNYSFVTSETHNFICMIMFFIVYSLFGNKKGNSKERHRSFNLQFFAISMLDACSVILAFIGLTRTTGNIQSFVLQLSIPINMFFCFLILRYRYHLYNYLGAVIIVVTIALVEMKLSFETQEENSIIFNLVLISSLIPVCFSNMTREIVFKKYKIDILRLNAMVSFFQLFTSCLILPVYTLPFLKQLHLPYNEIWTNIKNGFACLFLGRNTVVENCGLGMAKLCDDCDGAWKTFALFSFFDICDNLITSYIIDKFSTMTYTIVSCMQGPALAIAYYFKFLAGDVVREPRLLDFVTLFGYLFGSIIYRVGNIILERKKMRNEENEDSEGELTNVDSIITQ

[2] = tested on: PfCRT; assay: Influx of VF-6 via PfCRT into the oocyte, solutes tested as potential co-substrates; type: cell-based, Plasmodium falciparum; set-up: key: X: Compounds that have been tested as potential co-substrates but are not required for influx of VF-6 via PfCRT into the oocyte; conditions: X marks the solute
[3] = molecular target: PfCRT^3D7 (Plasmodium falciparum, UniProt Q8IBZ9); assay: cell-based; conditions: for Trans effect on [3H]VF-6 transport via PfCRT (in words): all three PfCRT isoforms (3D7, Ecu1110, Dd2); for IC50: mean ± SEM, n = 5, SEM
Description: (§1) The characterisation of [^3H]VF-6 transport via 23 different field and laboratory-derived isoforms of PfCRT was undertaken with oocytes two days post-cRNA-injection (Figs. 3a–j, 4; Supplementary Fig. 2). The oocytes were injected with 25 nL of ND96 buffer (pH 5.5) supplemented with [^3H]VF-6 and unlabelled VF-6 to achieve estimated intracellular concentrations of 1.4 and 200 μM, respectively. Ten oocytes that had resealed at the injection site were transferred to a 5 mL polystyrene round bottom tube (In Vitro Technologies) and washed with 3.5 mL of ND96 buffer before being transferred to separate wells of a white 96-well plate (PerkinElmer). This treatment served to establish the amount of radioactivity within the oocytes immediately prior to the commencement of the transport assay. Another 10 resealed oocytes were transferred to a 5 mL tube and washed with 3.5 mL of ND96 buffer. […] The assay was terminated by removing the reaction buffer with a pipette and washing the oocytes twice with 3.5 mL of ice-cold ND96 buffer. Each oocyte was transferred to a separate well of a white 96-well plate. The oocytes were lysed by the addition of 20 μL of 10% (w/v) SDS and overnight incubation at room temperature. The lysed oocyte was then combined with 150 μL of MicroScint-40 microscintillant (PerkinElmer), the plate covered with a TopSeal-A (PerkinElmer), and the radioactivity measured with a MicroBeta^2 microplate liquid scintillation analyser (PerkinElmer). VF-6 transport was calculated by subtracting the amount of radioactivity (measured in counts per minute) present within the oocytes at the end of the incubation from that measured in the oocytes sampled immediately before the commencement of the assay. The pH-dependence of transport (Fig. 3c) was determined by injecting the oocytes with [^3H]VF-6 suspended in 25 nL ND96 buffer adjusted to pH 5.0, 5.5, 6.0 or 7.0, which corresponded to the injection of 2.5–250 fmol of H^+. The dependence of [^3H]VF-6 transport on Na^+ or Cl^− was examined by injecting the oocytes with [^3H]VF-6 suspended in the control ND96 buffer (pH 5.5) or a version of this buffer that lacked either Na^+ or Cl^− (Supplementary Fig. 2). […] The dependence of peptide transport on Ca^2+ was determined by injecting the oocytes with [^3H]VF-6 suspended in ND96 buffers that contained different concentrations of Ca^2+ (0–5 mM; Supplementary Fig. 2). […] The dependence of PfCRT-mediated transport on the membrane potential was examined by using (1) Na^+ ionophore III in conjunction with the Na^+ gradients listed in Supplementary Data 7 and (2) Cl^− ionophore III in conjunction with the Cl^− gradients listed in Supplementary Data 7 to clamp the membrane potential of the oocyte from −80 to +80 mV. […] The kinetic parameters for VF-6 transport via different isoforms of PfCRT (Figs. 3e and 4a) were determined in SigmaPlot Windows Version 11.0 by a least-squares fit of the Michaelis–Menten equation to the data.
(§2) A subset of assays measured the ability of solutes known to interact with PfCRT to either cis-inhibit, trans-inhibit or trans-stimulate [^3H]VF-6 transport. These experiments involved adding these solutes to either the cis- or trans-side of the membrane relative to [^3H]VF-6. […] At least five independent experiments were performed (on different days and using oocytes from different frogs), and within each experiment measurements were made from ten oocytes per treatment.

[4] = molecular target: PfCRT^Dd2 (Plasmodium falciparum, UniProt Q9N623, A220S/I356T/K76T/M74I/N326S/N75E/Q271E/R371I); assay: cell-based; conditions: mean ± SEM, n = 5, SEM
Description: as §1, §2

[5] = molecular target: PfCRT^Ecu1110 (Plasmodium falciparum, UniProt Q9N623, A220S/I356L/K76T/N326D); assay: cell-based; conditions: mean ± SEM, n = 5, SEM
Description: as §1, §2

[6] = Cis-inhibition IC50 of [3H]VF-6 transport, PfCRTDd2, drug on same side as [3H]VF-6
[7] = Cis-inhibition IC50 of [3H]VF-6 transport, PfCRTEcu1110, drug on same side as [3H]VF-6

PfCRT^3D7, sequence (Q8IBZ9 59-398): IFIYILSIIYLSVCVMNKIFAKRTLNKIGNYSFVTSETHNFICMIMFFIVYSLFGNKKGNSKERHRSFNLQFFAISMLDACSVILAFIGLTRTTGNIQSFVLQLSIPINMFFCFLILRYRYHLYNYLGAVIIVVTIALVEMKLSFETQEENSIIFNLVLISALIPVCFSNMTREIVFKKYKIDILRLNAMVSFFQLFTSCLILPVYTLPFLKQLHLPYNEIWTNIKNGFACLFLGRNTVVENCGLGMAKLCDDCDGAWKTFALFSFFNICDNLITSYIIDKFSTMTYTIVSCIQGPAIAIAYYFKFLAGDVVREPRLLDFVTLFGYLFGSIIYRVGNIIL
PfCRT^Dd2, sequence (Q9N623 whole entry A220S/I356T/K76T/M74I/N326S/N75E/Q271E/R371I): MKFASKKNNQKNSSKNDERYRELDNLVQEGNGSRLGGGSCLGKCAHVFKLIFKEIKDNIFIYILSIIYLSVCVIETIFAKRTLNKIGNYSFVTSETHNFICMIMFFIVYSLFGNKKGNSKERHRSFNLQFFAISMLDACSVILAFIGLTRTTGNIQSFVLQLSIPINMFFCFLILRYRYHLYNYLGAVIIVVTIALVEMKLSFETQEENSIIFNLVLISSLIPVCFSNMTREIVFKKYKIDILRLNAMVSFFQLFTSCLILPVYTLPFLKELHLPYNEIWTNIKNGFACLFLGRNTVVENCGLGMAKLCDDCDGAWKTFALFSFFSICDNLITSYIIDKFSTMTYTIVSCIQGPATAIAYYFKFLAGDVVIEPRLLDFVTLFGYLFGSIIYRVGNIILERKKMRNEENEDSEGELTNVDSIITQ
PfCRT^Ecu1110, sequence (Q9N623 whole entry A220S/I356L/K76T/N326D): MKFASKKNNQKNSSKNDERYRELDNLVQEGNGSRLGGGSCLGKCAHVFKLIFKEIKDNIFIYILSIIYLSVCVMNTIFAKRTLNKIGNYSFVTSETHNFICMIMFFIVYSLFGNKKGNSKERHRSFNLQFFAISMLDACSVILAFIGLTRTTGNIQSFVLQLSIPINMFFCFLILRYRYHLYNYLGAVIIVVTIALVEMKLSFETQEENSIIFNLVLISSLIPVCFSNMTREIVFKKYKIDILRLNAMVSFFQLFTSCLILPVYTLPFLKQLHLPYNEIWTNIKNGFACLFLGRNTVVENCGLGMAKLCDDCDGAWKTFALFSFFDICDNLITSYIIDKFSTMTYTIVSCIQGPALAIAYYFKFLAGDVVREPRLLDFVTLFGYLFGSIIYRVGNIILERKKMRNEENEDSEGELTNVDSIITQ

| SMILES | Effect on rate of DV alkalinisation / H+ leak (in words) [1] | Compounds that have been tested as potential co-substrates but are not required for influx of VF-6 via PfCRT into the oocyte [2] | Trans effect on [3H]VF-6 transport via PfCRT (in words) [3] | Trans effect on [3H]VF-6 transport via PfCRT (in words) ([3]; listed as SQV) | IC50 ([3]; drug on same side as [3H]VF-6, read-out: Cis-inhibition IC50 of [3H]VF-6 transport, PfCRT3D7) [µM] | IC50 [4, 6] [µM] | IC50 [5, 7] [µM] | Maximum rate of peptide mimic-induced DV alkalinization ([1]; mean ± SEM, n = 5, SEM) [fluorescence ratio/s] | IC50 ([3]; Cis-inhibition IC50 of [3H]VF-6 transport, PfCRT3D7, drug on same side as [3H]VF-6) [µM] | IC50 ([3]; Trans-inhibition IC50 of [3H]VF-6 transport, PfCRT3D7, drug on opposite side to [3H]VF-6) [µM] | Extracellular concentration giving modest trans-stimulation of [3H]VF-6 transport ([3]; all three PfCRT isoforms) [µM] | IC50 ([4]; Trans-inhibition IC50 of [3H]VF-6 transport, PfCRTDd2, drug on opposite side to [3H]VF-6) [µM] | IC50 ([5]; Trans-inhibition IC50 of [3H]VF-6 transport, PfCRTEcu1110, drug on opposite side to [3H]VF-6) [µM] |
| --- | --- | --- | --- | --- | --- | --- | --- | --- | --- | --- | --- | --- | --- |
| N[C@@H](Cc1c[nH]cn1)C(=O)O [L-histidine] | without effect | X |  |  |  |  |  |  |  |  |  |  |  |
| CC(C)(C)NC(=O)[C@@H]1C[C@@H]2CCCC[C@@H]2CN1C[C@@H](O)[C@H](Cc1ccccc1)NC(=O)[C@H](CC(N)=O)NC(=O)c1ccc2ccccc2n1 [Saquinavir, saquinavir, reference compound] | increased the rate of DV alkalinisation |  | trans-stimulated | Trans-stimulates | 50 ± 2.3 | 89 ± 3.8 | 74 ± 3.9 | 0.022 ±0.004 |  |  |  |  |  |
| CCN(CC)CCCC(C)Nc1ccnc2cc(Cl)ccc12 (centres unmarked) [CQ, chloroquine, reference compound] | increase |  |  |  |  | 53 ± 2.8 | 72 ± 3.1 |  | 110 ± 5.9 | 77 ± 5.2 | ≥ 500 | 54 ± 3.6 | 62 ± 2.6 |
